Experimental data as given in patent US12077503B2, “Substituted cyclic amides and their use as herbicides” (FMC CORPORATION, priority 2015, dated 2024).

Key:
Type in all cases: in vivo
[1] = tested on: giant foxtail (Setaria faberii); test: Test A postemergence; details: Setaria faberi, post-emergence, 240 h, postemergence, read-out: Foxtail, Giant plant response rating
How it was run: (§1)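 Greenhouse, ~10 d after spray; visual injury vs untreated controls, 0 = no effect, 100 = complete control. Preemergence: directed soil spray over planted seeds. Postemergence: plants 2–10 cm, 1–2 leaf stage. Loam/sand blend. Compound in non-phytotoxic solvent with surfactant.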

[2] = tested on: Galium (catchweed bedstraw, Galium aparine); test: Test A postemergence; details: Galium, post-emergence, 240 h, postemergence, read-out: Galium plant response rating
How it was run: as §1

[3] = tested on: ryegrass, Italian (Italian ryegrass, Lolium multiflorum); test: Test A postemergence; details: Lolium multiflorum, post-emergence, 240 h, postemergence, read-out: Ryegrass, Italian plant response rating
How it was run: as §1

[4] = tested on: barnyardgrass (Echinochloa crus-galli); test: Test A postemergence; details: Echinochloa crus-galli, post-emergence, 240 h, postemergence, read-out: Barnyardgrass plant response rating
How it was run: as §1

Kochia (Kochia scoparia) [5] = test: Test A postemergence; details: Bassia scoparia, post-emergence, 240 h, postemergence, read-out: Kochia plant response rating
How it was run: as §1

[6] = tested on: wheat (Triticum aestivum); test: Test A postemergence; details: Triticum aestivum, post-emergence, 240 h, postemergence, read-out: Wheat plant response rating
How it was run: as §1

[7] = tested on: ragweed (common ragweed, Ambrosia elatior); test: Test A postemergence; details: Ambrosia artemisiifolia, post-emergence, 240 h, postemergence, read-out: Ragweed plant response rating
How it was run: as §1

[8] = tested on: blackgrass (Alopecurus myosuroides); test: Test A postemergence; details: Alopecurus myosuroides, post-emergence, 240 h, postemergence, read-out: Blackgrass plant response rating
How it was run: as §1

corn (Zea mays) = test: Test A postemergence; details: Zea mays, post-emergence, 240 h, postemergence, read-out: Corn plant response rating
How it was run: as §1

[9] = tested on: giant foxtail (Setaria faberii); test: Test A preemergence; details: Setaria faberi, pre-emergence, 240 h, preemergence, 0 to 100 scale where 0 is no effect and 100 is complete control, read-out: Foxtail, Giant plant response rating
How it was run: as §1

[10] = tested on: ryegrass, Italian (Italian ryegrass, Lolium multiflorum); test: Test A preemergence; details: Lolium multiflorum, pre-emergence, 240 h, preemergence, 0 to 100 scale where 0 is no effect and 100 is complete control, read-out: Ryegrass, Italian plant response rating
How it was run: as §1

[11] = tested on: barnyardgrass (Echinochloa crus-galli); test: Test A preemergence; details: Echinochloa crus-galli, pre-emergence, 240 h, preemergence, read-out: Barnyardgrass plant response rating
How it was run: as §1

Kochia (Kochia scoparia) [12] = test: Test A preemergence; details: Bassia scoparia, pre-emergence, 240 h, preemergence, 0 to 100 scale where 0 is no effect and 100 is complete control, read-out: Kochia plant response rating
How it was run: as §1

[13] = tested on: ragweed (common ragweed, Ambrosia elatior); test: Test A preemergence; details: Ambrosia artemisiifolia, pre-emergence, 240 h, preemergence, 0 to 100 scale where 0 is no effect and 100 is complete control, read-out: Ragweed plant response rating
How it was run: as §1

[14] = tested on: pigweed (Amaranthus retroflexus); test: Test A preemergence; details: Amaranthus retroflexus, pre-emergence, 240 h, preemergence, 0 to 100 scale where 0 is no effect and 100 is complete control, read-out: Pigweed plant response rating
[15] = 125 g ai/ha, visual injury on 0 to 100 scale (0 no effect, 100 complete control), approx. 10 d
[16] = 500 g ai/ha, 0 to 100 scale, 0 is no effect, 100 is complete control

SMILES: Cc1cc([C@H]2CN(C)C(=O)[C@@H]2C(=O)Nc2ccccc2S(C)(=O)=O)ccc1Br [Compound 1102]
- pest or weed control at 125 g/ha [1, 15]: 80%
- pest or weed control at 500 g/ha [1, 16]: 90%
- pest or weed control at 125 g/ha [2, 15]: 0%
- pest or weed control at 500 g/ha [2, 16]: 30%
- pest or weed control at 125 g/ha [3, 15]: 0%
- pest or weed control at 500 g/ha [3, 16]: 30%
- pest or weed control at 125 g/ha [4, 15]: 80%
- pest or weed control at 500 g/ha [4, 16]: 80%
- pest or weed control at 125 g/ha (Kochia (Kochia scoparia) [5]; [15]): 0%
- pest or weed control at 500 g/ha (Kochia (Kochia scoparia) [5]; [16]): 0%
- plant injury at 125 g/ha [6, 15]: 20%
- plant injury at 500 g/ha [6, 16]: 50%
- pest or weed control at 125 g/ha [7, 15]: 0%
- pest or weed control at 500 g/ha [7, 16]: 20%
- pest or weed control at 125 g/ha [8, 15]: 20%
- pest or weed control at 500 g/ha [8, 16]: 50%
- plant injury at 125 g/ha (corn (Zea mays); [15]): 20%
- plant injury at 500 g/ha (corn (Zea mays); [16]): 60%
- pest or weed control at 125 g/ha ([9]; 125 g ai/ha, approx. 10 d): 90%
- pest or weed control at 500 g/ha ([9]; 500 g ai/ha): 90%
- pest or weed control at 125 g/ha ([10]; 125 g ai/ha, approx. 10 d): 30%
- pest or weed control at 500 g/ha ([10]; 500 g ai/ha): 60%
- pest or weed control at 125 g/ha ([11]; 125 g ai/ha, 0 to 100 scale where 0 is no effect and 100 is complete control, approx. 10 d): 90%
- pest or weed control at 500 g/ha ([11]; 500 g ai/ha, visual injury rating about 10 d after treatment, 0 to 100 scale (0 no effect, 100 complete control)): 90%
- pest or weed control at 125 g/ha (Kochia (Kochia scoparia) [12]; 125 g ai/ha, approx. 10 d): 20%
- pest or weed control at 500 g/ha (Kochia (Kochia scoparia) [12]; 500 g ai/ha): 70%
- pest or weed control at 125 g/ha ([13]; 125 g ai/ha, approx. 10 d): 0%
- pest or weed control at 500 g/ha ([13]; 500 g ai/ha): 50%
- pest or weed control at 125 g/ha ([14]; 125 g ai/ha, approx. 10 d): 20%
- pest or weed control at 500 g/ha ([14]; 500 g ai/ha): 50%
